{
  "source": "patent US12077503B2",
  "about": "“Substituted cyclic amides and their use as herbicides” (FMC CORPORATION, priority 2015, dated 2024)",
  "assay_type_in_all_cases": "in vivo",
  "key": {"Kochia (Kochia scoparia) [1]": {"system": "Kochia (Kochia scoparia)", "assay": "Test A preemergence", "settings": "Bassia scoparia, pre-emergence, 240 h, 0 to 100 scale where 0 is no effect and 100 is complete control, read-out: Kochia plant response rating", "in_short": "(§1)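 Ratings of 0 (no effect) to 100 (complete control) come from visual comparison with untreated controls roughly 10 d after treatment. Test chemicals, formulated in a non-phytotoxic solvent mixture with surfactant, were applied either as a preemergence directed soil spray on seeded soil or postemergence to one- to two-leaf plants 2 to 10 cm tall.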"}, "[2]": {"system": "barnyardgrass (Echinochloa crus-galli)", "assay": "Test A preemergence", "settings": "Echinochloa crus-galli, pre-emergence, 240 h, 0 to 100 scale where 0 is no effect and 100 is complete control, read-out: Barnyardgrass plant response rating", "in_short": "as §1"}, "[3]": {"system": "giant foxtail (Setaria faberii)", "assay": "Test A preemergence", "settings": "Setaria faberi, pre-emergence, 240 h, 0 to 100 scale where 0 is no effect and 100 is complete control, read-out: Foxtail, Giant plant response rating", "in_short": "as §1"}, "[4]": {"system": "pigweed (Amaranthus retroflexus)", "assay": "Test A preemergence", "settings": "Amaranthus retroflexus, pre-emergence, 240 h, 0 to 100 scale where 0 is no effect and 100 is complete control, read-out: Pigweed plant response rating"}, "[5]": {"system": "ragweed (common ragweed, Ambrosia elatior)", "assay": "Test A preemergence", "settings": "Ambrosia artemisiifolia, pre-emergence, 240 h, 0 to 100 scale where 0 is no effect and 100 is complete control, read-out: Ragweed plant response rating", "in_short": "as §1"}, "[6]": {"system": "ryegrass, Italian (Italian ryegrass, Lolium multiflorum)", "assay": "Test A preemergence", "settings": "Lolium multiflorum, pre-emergence, 240 h, 0 to 100 scale where 0 is no effect and 100 is complete control, read-out: Ryegrass, Italian plant response rating", "in_short": "as §1"}, "[7]": {"system": "Galium (catchweed bedstraw, Galium aparine)", "assay": "Test A postemergence", "settings": "Galium, post-emergence, 240 h", "in_short": "as §1"}, "Kochia (Kochia scoparia) [8]": {"system": "Kochia (Kochia scoparia)", "assay": "Test A postemergence", "settings": "Bassia scoparia, post-emergence, 240 h", "in_short": "as §1"}, "[9]": {"system": "barnyardgrass (Echinochloa crus-galli)", "assay": "Test A postemergence", "settings": "Echinochloa crus-galli, post-emergence, 240 h", "in_short": "as §1"}, "[10]": {"system": "blackgrass (Alopecurus myosuroides)", "assay": "Test A postemergence", "settings": "Alopecurus myosuroides, post-emergence, 240 h", "in_short": "as §1"}, "corn (Zea mays)": {"system": "corn (Zea mays)", "assay": "Test A postemergence", "settings": "Zea mays, post-emergence, 240 h", "in_short": "as §1"}, "[11]": {"system": "giant foxtail (Setaria faberii)", "assay": "Test A postemergence", "settings": "Setaria faberi, post-emergence, 240 h", "in_short": "as §1"}, "[12]": {"system": "pigweed (Amaranthus retroflexus)", "assay": "Test A postemergence", "settings": "Amaranthus retroflexus, post-emergence, 240 h, 125 g ai/ha, postemergence, visual injury vs untreated controls after approx. 10 d; 0 = no effect, 100 = complete control; read-out: Pigweed plant response rating (0 to 100 scale)", "in_short": "as §1"}, "[13]": {"system": "ragweed (common ragweed, Ambrosia elatior)", "assay": "Test A postemergence", "settings": "Ambrosia artemisiifolia, post-emergence, 240 h, 125 g ai/ha, postemergence, visual injury vs untreated controls after approx. 10 d; 0 = no effect, 100 = complete control; read-out: Ragweed plant response rating (0 to 100 scale)", "in_short": "as §1"}, "[14]": {"system": "ryegrass, Italian (Italian ryegrass, Lolium multiflorum)", "assay": "Test A postemergence", "settings": "Lolium multiflorum, post-emergence, 240 h, 125 g ai/ha, postemergence, visual injury vs untreated controls after approx. 10 d; 0 = no effect, 100 = complete control; read-out: Ryegrass, Italian plant response rating (0 to 100 scale)", "in_short": "as §1"}, "[15]": {"system": "wheat (Triticum aestivum)", "assay": "Test A postemergence", "settings": "Triticum aestivum, post-emergence, 240 h, 125 g ai/ha, postemergence, visual injury vs untreated controls after approx. 10 d; 0 = no effect, 100 = complete control; read-out: Wheat plant response rating (0 to 100 scale)", "in_short": "as §1"}, "[16]": {"system": "barnyardgrass (Echinochloa crus-galli)", "assay": "Test B flooded paddy test", "settings": "Echinochloa crus-galli, 250 g ai/ha, Flood; 0 to 100 scale where 0 is no effect and 100 is complete control; read-out: Barnyardgrass plant response rating", "in_short": "(§2)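 Rating scale 0–100 (visual, vs untreated controls) after a 13–15 d greenhouse period; application to the flood layer, 3 cm above soil and maintained; plants at 2-leaf stage when treated.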"}, "[17]": {"system": "ducksalad (Heteranthera limosa)", "assay": "Test B flooded paddy test", "settings": "Heteranthera limosa, 250 g ai/ha, Flood; 0 to 100 scale where 0 is no effect and 100 is complete control; read-out: Ducksalad plant response rating", "in_short": "as §2"}, "rice (Oryra sativa)": {"system": "rice (Oryra sativa)", "assay": "Test B flooded paddy test", "settings": "Oryza sativa, 250 g ai/ha, Flood; 0 to 100 scale where 0 is no effect and 100 is complete control; read-out: Rice plant response rating", "in_short": "as §2"}, "[18]": {"system": "sedge, umbrella (small-flower umbrella sedge, Cyperus difformis)", "assay": "Test B flooded paddy test", "settings": "Cyperus difformis, 250 g ai/ha, Flood; 0 to 100 scale where 0 is no effect and 100 is complete control; read-out: Sedge, Umbrella plant response rating", "in_short": "as §2"}, "[19]": {"settings": "125 g ai/ha, preemergence, visual injury rating, approximately 10 d"}},
  "data": [
    {"compound": "CSc1ccccc1NC(=O)[C@H]1C(=O)N(C)C[C@@H]1c1ccc(C)cc1", "note": "[Compound 1187]", "values": [
      {"measurement": "pest or weed control at 31 g/ha", "setting": "Kochia (Kochia scoparia) [1]; 31 g ai/ha, Preemergence", "value": 50, "unit": "%"},
      {"measurement": "pest or weed control at 125 g/ha", "setting": "Kochia (Kochia scoparia) [1]; [19]", "value": 70, "unit": "%"},
      {"measurement": "pest or weed control at 31 g/ha", "setting": "[2]; 31 g ai/ha, Preemergence", "value": 70, "unit": "%"},
      {"measurement": "pest or weed control at 125 g/ha", "setting": "[2]; [19]", "value": 100, "unit": "%"},
      {"measurement": "pest or weed control at 31 g/ha", "setting": "[3]; 31 g ai/ha, Preemergence", "value": 90, "unit": "%"},
      {"measurement": "pest or weed control at 125 g/ha", "setting": "[3]; [19]", "value": 100, "unit": "%"},
      {"measurement": "pest or weed control at 31 g/ha", "setting": "[4]; 31 g ai/ha, Preemergence", "value": 0, "unit": "%"},
      {"measurement": "pest or weed control at 125 g/ha", "setting": "[4]; [19]", "value": 20, "unit": "%"},
      {"measurement": "pest or weed control at 31 g/ha", "setting": "[5]; 31 g ai/ha, Preemergence", "value": 0, "unit": "%"},
      {"measurement": "pest or weed control at 125 g/ha", "setting": "[5]; [19]", "value": 50, "unit": "%"},
      {"measurement": "pest or weed control at 31 g/ha", "setting": "[6]; 31 g ai/ha, Preemergence", "value": 0, "unit": "%"},
      {"measurement": "pest or weed control at 125 g/ha", "setting": "[6]; [19]", "value": 40, "unit": "%"},
      {"measurement": "pest or weed control at 125 g/ha", "setting": "[7]; 125 g ai/ha, postemergence, visual injury vs untreated controls after approx. 10 d, 0 = no effect, 100 = complete control, read-out: Galium plant response rating (0 to 100 scale)", "value": 50, "unit": "%"},
      {"measurement": "pest or weed control at 31 g/ha", "setting": "[7]; Postemergence, 31 g ai/ha, visual injury after approx. 10 d, 0 to 100 scale, 0 no effect, 100 complete control, read-out: Plant response rating, Galium", "value": 20, "unit": "%"},
      {"measurement": "pest or weed control at 125 g/ha", "setting": "Kochia (Kochia scoparia) [8]; 125 g ai/ha, postemergence, visual injury vs untreated controls after approx. 10 d, 0 = no effect, 100 = complete control, read-out: Kochia plant response rating (0 to 100 scale)", "value": 20, "unit": "%"},
      {"measurement": "pest or weed control at 31 g/ha", "setting": "Kochia (Kochia scoparia) [8]; Postemergence, 31 g ai/ha, visual injury after approx. 10 d, 0 to 100 scale, 0 no effect, 100 complete control, read-out: Plant response rating, Kochia", "value": 0, "unit": "%"},
      {"measurement": "pest or weed control at 125 g/ha", "setting": "[9]; 125 g ai/ha, postemergence, visual injury vs untreated controls after approx. 10 d, 0 = no effect, 100 = complete control, read-out: Barnyardgrass plant response rating (0 to 100 scale)", "value": 100, "unit": "%"},
      {"measurement": "pest or weed control at 31 g/ha", "setting": "[9]; Postemergence, 31 g ai/ha, visual injury after approx. 10 d, 0 to 100 scale, 0 no effect, 100 complete control, read-out: Plant response rating, Barnyardgrass", "value": 20, "unit": "%"},
      {"measurement": "pest or weed control at 125 g/ha", "setting": "[10]; 125 g ai/ha, postemergence, visual injury vs untreated controls after approx. 10 d, 0 = no effect, 100 = complete control, read-out: Blackgrass plant response rating (0 to 100 scale)", "value": 40, "unit": "%"},
      {"measurement": "pest or weed control at 31 g/ha", "setting": "[10]; Postemergence, 31 g ai/ha, visual injury after approx. 10 d, 0 to 100 scale, 0 no effect, 100 complete control, read-out: Plant response rating, Blackgrass", "value": 0, "unit": "%"},
      {"measurement": "plant injury at 125 g/ha", "setting": "corn (Zea mays); 125 g ai/ha, postemergence, visual injury vs untreated controls after approx. 10 d, 0 = no effect, 100 = complete control, read-out: Corn plant response rating (0 to 100 scale)", "value": 0, "unit": "%"},
      {"measurement": "Corn plant response rating (crop injury, 0 = no effect, 100 = complete kill) at 31 g/ha", "setting": "corn (Zea mays); Postemergence, 31 g ai/ha, visual injury after approx. 10 d, 0 to 100 scale, 0 no effect, 100 complete control", "value": 0, "unit": "%"},
      {"measurement": "pest or weed control at 125 g/ha", "setting": "[11]; 125 g ai/ha, postemergence, visual injury vs untreated controls after approx. 10 d, 0 = no effect, 100 = complete control, read-out: Foxtail, Giant plant response rating (0 to 100 scale)", "value": 80, "unit": "%"},
      {"measurement": "pest or weed control at 31 g/ha", "setting": "[11]; Postemergence, 31 g ai/ha, visual injury after approx. 10 d, 0 to 100 scale, 0 no effect, 100 complete control, read-out: Plant response rating, Foxtail, Giant", "value": 40, "unit": "%"},
      {"measurement": "pest or weed control at 125 g/ha", "setting": "[12]", "value": 0, "unit": "%"},
      {"measurement": "pest or weed control at 125 g/ha", "setting": "[13]", "value": 0, "unit": "%"},
      {"measurement": "pest or weed control at 125 g/ha", "setting": "[14]", "value": 20, "unit": "%"},
      {"measurement": "plant injury at 125 g/ha", "setting": "[15]", "value": 20, "unit": "%"},
      {"measurement": "pest or weed control at 250 g/ha", "setting": "[16]", "value": 60, "unit": "%"},
      {"measurement": "pest or weed control at 250 g/ha", "setting": "[17]", "value": 85, "unit": "%"},
      {"measurement": "pest or weed control at 250 g/ha", "setting": "rice (Oryra sativa)", "value": 0, "unit": "%"},
      {"measurement": "pest or weed control at 250 g/ha", "setting": "[18]", "value": 0, "unit": "%"}
    ]}
  ]
}
